From paper PMC4869338 (Malaria Journal, 2016)
Values joined by “and” are separate entries in the source; they are usually repeats but may differ in a detail not shown here. Equal values may be shown once. “Also recorded” adds a separate entry of the source. Read-outs that look alike come from different tables or passages of the source.

What was measured:
[1] = humans; cited from earlier work
[2] = cited from earlier work
CYP2D6 = settings: cited from earlier work
[3] = target: T1, Recombinant human CYP 2D6 (Homo sapiens, UniProt P10635); assay: biochemical
T1 sequence (P10635 whole entry): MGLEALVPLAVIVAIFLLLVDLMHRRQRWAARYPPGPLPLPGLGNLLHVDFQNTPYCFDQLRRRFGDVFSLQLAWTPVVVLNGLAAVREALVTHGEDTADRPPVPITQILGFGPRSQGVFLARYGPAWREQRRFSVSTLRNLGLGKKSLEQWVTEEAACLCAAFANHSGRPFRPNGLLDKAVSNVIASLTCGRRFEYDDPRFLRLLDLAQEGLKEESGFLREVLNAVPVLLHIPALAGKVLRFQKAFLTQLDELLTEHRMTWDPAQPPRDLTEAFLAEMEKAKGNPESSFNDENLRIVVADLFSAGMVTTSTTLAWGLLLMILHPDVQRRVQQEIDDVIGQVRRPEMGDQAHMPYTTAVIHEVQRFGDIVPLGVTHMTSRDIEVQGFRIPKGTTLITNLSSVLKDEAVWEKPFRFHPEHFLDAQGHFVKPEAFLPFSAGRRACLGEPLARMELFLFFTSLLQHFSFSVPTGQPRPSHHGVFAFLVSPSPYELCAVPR
Description: The samples were centrifuged at 15,700×g at 4 °C for 10 min, supernatants collected and analysed by liquid chromatography/tandem mass spectrometry (LC–MS/MS).
Analyte peaks were detected and quantified using a TSQ Quantum triple quadrupole mass spectrometer (Thermo Fisher Scientific, Waltham, MA, USA). Mass spectrometry conditions were optimized for each analyte (see Additional file 1 for masses and ion transitions). […] Samples were analysed with electrospray ionization in positive ion mode (source temperature 350 °C) by selected reaction monitoring at a collision pressure of 1.0 mTorr. Analyte peaks were detected and quantified using the Xcalibur software package.

CYP3A4 = settings: cited from earlier work
[4] = tested on: Plasmodium berghei sporozoites
Description: Drug suspensions were made and transferred to a 20-ml bottle, drawn into a 1-ml syringe, and delivered via oral feeder (18 gauge) to the designated recipient. […] Both liver and blood stages of P. berghei infections were monitored using the in vivo imaging system (IVIS) and flow cytometry as described in [29].

CYP2C9 = tested on: CYP2C9; parameters: method as in PMID 18691982; settings: cited from earlier work
CYP1A2 = tested on: CYP1A2; parameters: method as in PMID 18691982; settings: cited from earlier work
CYP2C19 = settings: cited from earlier work
[5] = cited from earlier work; remark: listed apart in the source
CYP 2D6 = settings: in vivo; cited from earlier work
[6] = target: T1, Recombinant human CYP 2D6; settings: sixty-minute incubation; previously reported; cited from earlier work
[7] = tested on: primary human hepatocytes; settings: 240-min incubation; previously reported; cited from earlier work
[8] = Mouse oral pharmacokinetics of primaquine and 5,6-orthoquinone with and without fluoxetine; settings: mice; oral primaquine 20 mg/kg; fluoxetine 4 mg/kg/day for 3 days
Description: Analyte peaks were detected and quantified using a TSQ Quantum triple quadrupole mass spectrometer (Thermo Fisher Scientific, Waltham, MA, USA). […] Chromatographic separations were achieved using a Waters XTerra MS C18 (2.1 × 50 mm, 3.5 μm) column (Milford, MA, USA) with a Phenomenex (4 × 20 mm, 3.5 µm) guard column (Torrance, CA, USA) at a flow rate of 0.35 ml/min. A 7-min linear gradient from 5 to 95 % acetonitrile (0.1 % formic acid) was utilized. Samples were analysed with electrospray ionization in positive ion mode (source temperature 350 °C) by selected reaction monitoring at a collision pressure of 1.0 mTorr. Analyte peaks were detected and quantified using the Xcalibur software package.
Briefly, male, 9–12-weeks old, wild-type, C57BL/6 mice (Taconic Biosciences, Germantown, NY, USA) were used for pharmacokinetic evaluations. On arrival, animals were acclimated for 7 days in quarantine. The animals were housed in a cage maintained at a temperature range of 18–26 °C, 34–68 % relative humidity and a 12-h light/dark cycle. Food and water were provided ad libitum during quarantine and throughout the study. The animals were fed a standard rodent maintenance diet.
Pharmacokinetic studies were performed using oral administration. […] For each timepoint, animals were euthanized and plasma and liver samples collected. […] Supernatant was collected and analysed by LC–MS/MS analyses.

[9] = tested on: primary human hepatocytes; assay: Primaquine metabolism in pooled primary human hepatocytes pre-treated with antidepressants; assay type: in vitro ADME; settings: antidepressant 10 μM pre-treatment 15 min; primaquine 1 μM; 4-h incubation
Description: Cryopreserved, pooled, human, primary hepatocytes were flash thawed in a 37 °C bath for 1 min. One vial of the thawed hepatocytes (5 million cells/vial) was added to 40 ml of pre-warmed thawing buffer, mixed thoroughly by gentle pipetting, and centrifuged at 72×g for 6 min. The supernatant was then aspirated and the pellet resuspended in hepatocyte incubation buffer (InVitroGRO HI media, BioreclamationIVT, Baltimore, MD, USA). The hepatocytes were then seeded onto 12-well culture plates, approximately 7 × 10^5 hepatocytes/ml per well, and incubated in a humidified 5 % CO2/95 % air incubator for 30 min prior to the addition of compounds.
All reactions were stopped by adding an equal volume of acetonitrile. […] The supernatant was collected and 200 μl of sample was loaded on to a 96-well LC–MS/MS plate for analysis. Samples were analysed immediately after sample collection.

Row | IC50 [3] | SMILES | Enzymes involved in biotransformation [2] | Enzymes inhibited by antidepressant: CYP2D6 (CYP2D6) | Enzymes inhibited by antidepressant: CYP3A4 (CYP3A4) | Enzymes inhibited by antidepressant: CYP2C9 (CYP2C9) | other results
1 |  | CCN(CC)CCCC(C)Nc1ccnc2cc(Cl)ccc12 (stereo not drawn) [chloroquine] |  |  |  |  | primaquine exposure on co-administration [1]: significantly higher primaquine exposure
2 | 9.28 µM | CN(C)CCCC1(c2ccc(F)cc2)OCc2cc(C#N)ccc21 (stereo not drawn) [citalopram] | CYP2C19, CYP2D6, and CYP3A4 | CYP2D6 (weak) |  |  | 
3 | ~94 µM and 94.3 µM | CN(C)CC(c1ccc(O)cc1)C1(O)CCCCC1 (stereo not drawn) [desvenlafaxine] |  |  | CYP3A4 (weak) |  | 
4 | 7.35 µM | CN(C)CCC[C@@]1(c2ccc(F)cc2)OCc2cc(C#N)ccc21 [escitalopram] | CYP2C19, CYP2D6, and CYP3A4 | CYP2D6 (weak) |  |  | 
5 |  | CNCCC(Oc1ccc(C(F)(F)F)cc1)c1ccccc1 (stereo not drawn) [fluoxetine] | CYP2D6, CYP2C9, CYP2C19, and CYP3A4 | strong | weak to moderate | moderate | effect of fluoxetine co-administration on primaquine anti-malarial efficacy ([4]; fluoxetine 4 mg/kg/day for 5 days with primaquine 20 mg/kg/day for 3 days): reduced primaquine anti-malarial efficacy; also recorded: negatively impacted primaquine efficacy; Enzymes inhibited by antidepressant: CYP1A2 (CYP1A2): weak; Enzymes inhibited by antidepressant: CYP2C19 (CYP2C19): CYP2D6 (strong), CYP2C9 (moderate), CYP2C19, (weak to moderate), CYP3A4 (weak to moderate), CYP1A2 (weak); elimination half-life [5]: long; change of CYP 2D6 phenotype of human subjects (CYP 2D6): from extensive to poor metabolizers
6 |  | NCCC(Oc1ccc(C(F)(F)F)cc1)c1ccccc1 (stereo not drawn) [nor-fluoxetine] |  |  |  |  | CYP 2D6 inhibition by major metabolite of fluoxetine (CYP2D6; no reference given): potent CYP 2D6 inhibitor; elimination half-life ([5]; in vivo): long
7 |  | Fc1ccc([C@@H]2CCNC[C@H]2COc2ccc3c(c2)OCO3)cc1 [paroxetine] | CYP2D6 and CYP3A4 | CYP2D6 (strong), CYP1A2 (weak), CYP2C9 (weak), CYP2C19 (weak), CYP3A4 (weak) | CYP2D6 (strong), CYP1A2 (weak), CYP2C9 (weak), CYP2C19 (weak), CYP3A4 (weak) | CYP2D6 (strong), CYP1A2 (weak), CYP2C9 (weak), CYP2C19 (weak), CYP3A4 (weak) | Enzymes inhibited by antidepressant: CYP1A2 (CYP1A2): CYP2D6 (strong), CYP1A2 (weak), CYP2C9 (weak), CYP2C19 (weak), CYP3A4 (weak); Enzymes inhibited by antidepressant: CYP2C19 (CYP2C19): CYP2D6 (strong), CYP1A2 (weak), CYP2C9 (weak), CYP2C19 (weak), CYP3A4 (weak)
8 |  | COc1cc(NC(C)CCCN)c2ncccc2c1 (stereo not drawn) [primaquine] |  |  |  |  | blood stage parasitaemia status throughout the 31-day experiment ([4]; flow cytometry, P. berghei infected mice): parasitaemia-free; primaquine metabolism signal by CYP 2D6 [6]: > 80%; primaquine metabolism signal in hepatocytes [7]: ~ 40%; pharmacokinetics of parent primaquine upon co-administration with fluoxetine [8]: not drastically altered
9 | 4.35 µM | CN[C@H]1CC[C@@H](c2ccc(Cl)c(Cl)c2)c2ccccc21 [sertraline] | CYP2C9, CYP2C19, CYP2D6, and CYP3A4 |  |  | CYP2D6 (weak to moderate), CYP1A2 (weak), CYP2C9 (weak), CYP2C19 (weak), CYP3A4 (weak) | 

Row | SMILES | IC50 [3] | Enzymes involved in biotransformation [2] | Enzymes inhibited by antidepressant: CYP2D6 (CYP2D6) | Enzymes inhibited by antidepressant: CYP3A4 (CYP3A4) | Enzymes inhibited by antidepressant: CYP2C9 (CYP2C9) | other results
10 | COc1ccc(C(CN(C)C)C2(O)CCCCC2)cc1 (stereo not drawn) [venlafaxine] | 19.1 µM |  | CYP2D6 (weak) |  |  | inhibition of primaquine metabolism in hepatocytes [9]: no inhibition of primaquine metabolism
